From ChEMBL document CHEMBL1134925, “Exiguamide, a new spirocyclic sesquiterpene from the marine sponge Geodia exigua that inhibits cell fate specification during sea urchin embryogenesis” (Bioorg Med Chem Lett, 2002) come the findings set out here.

Each structure is given as a SMILES string. The source made the active and inactive calls. The rule behind the calls is not given here.

This experiment relates to Hemicentrotus pulcherrimus. The experiment in a line: Ability of the embryo (sea urchin, Hemicentrotus pulcherrimus) to form spicule deficient plutei when treated with the compound at a concentration of 0.4-12 uM; not active. The class given is functional, organism-based.

On to `CC1=C[C@@]2(CC1)[C@H](NC=O)[C@H](C(C)C)CC[C@@H]2C`, for which the result was inactive.
